Drawing on paper PMC5520944 (Cell Death & Disease, 2017), this text covers activity for 43 compounds.

The test system of the assay is L929sAhFas. Kind of assay: cells. Also on record: high-content necroptosis screen, percentage PI-positive nuclei as percent of DMSO plus stimulus control. From the text:
To identify novel inhibitors or regulators of necroptosis, 500 small compounds from libraries targeting autophagy, kinases, phosphatases, proteases and redox balance were screened for their ability to block TNF-induced necroptosis in murine L929sAhFas cells. Three conditions were used to induce necroptosis in L929 cells: TNF alone, TNF+TAK1 inhibitor (TAK1i) and TNF+zVAD-fmk, a pan-caspase inhibitor. Inhibition of TAK1 or caspases sensitizes to necroptosis.[13], [32] Necroptosis, measured as the percentage of PI-positive nuclei normalized to the plate-specific DMSO control, was determined for each compound (Supplementary Figure 1A). […] After compound treatment, L929sAhFas (a) or L929 (b) cells were stimulated with mTNF (T), mTNF+Tak1i (TiT) or mTNF+zVAD (zVT) (Supplementary Figure 1A and B). (a) Cell death percentage (% PI-positive nuclei) or cell loss was calculated as percent of control (DMSO+stimulus). […] (b) Cell loss (luminescence-based readout for ATP) was calculated as percent of control (DMSO+stimulus). […] In stimulated conditions, % PI-positive nuclei was determined as % of DMSO control. Data represent mean values±S.E.M. of two independent experiments. Cells were stained with Hoechst and PI and percentage PI-positive nuclei was determined using high-content image analysis (BD pathway Bioimager). (d) L929sAhFas cells were treated with Sorafenib (concentration as indicated) for 24 h. Then, stimulus was removed, 50 cells/condition seeded and colonies counted with crystal violet staining after 10 days incubation. […] Schemes of workflow screening assays in L929 cell lines. (A) Scheme of the workflow of a high-content screening assay on L929sAhFas cells using mTNF (T) and mTNF+Tak1i ((5Z)-7-Oxozeaenol) (TiT) to induce necroptotic cell death. Nec-1 and zVAD-fmk were used as protective and sensitizing benchmarks, respectively, on all plates. (B) Scheme of the workflow of a CellTiter-Glo luminescent cell viability screening assay on L929 cells using mTNF+zVAD (zVT) to induce necroptotic cell death. Supplementary Figure S2. Z’ calculation for cell death screening assays in L929 cells. (A) Z’ calculation for cell death screening assay (Fig. 1A) in mTNF-stimulated L929sAhFas cells. (B) Z’ calculation for cell death screening assay (Fig. 1A) in L929sAhFas cells stimulated with mTNF + Taki.

Setting [1] is: read-out: cell death TNF/Taki (POC).

Counter-ions that a name gives are not always drawn. Like-named read-outs stand apart in the source and are kept apart here.

For the compound `Cn1cnc(N)c2ncnc1-2` [3-Methyladenine], the activity at 10 µM by setting is: (read-out: cell death TNF (POC)) 88.7%; under setting [1], 102%.

In the case of `Nc1ncnc2c1c(I)cn2[C@@H]1O[C@H](CO)[C@@H](O)[C@H]1O` [5-Iodotubercidin], the activity at 10 µM is 229% (read-out: cell death TNF (POC)) and 101% under setting [1].

Take `N#CC(C#N)=Cc1ccc([N+](=O)[O-])c(O)c1` [AG-126]: the activity at 10 µM is, setting by setting: (read-out: cell death TNF (POC)) 94.7%; under setting [1], 99.4%.

As for `N#CC(=Cc1ccc2[nH]ccc2c1)C(N)=C(C#N)C#N` [AG-370], the activity at 10 µM (read-out: cell death TNF (POC)) is 86% and the activity at 10 µM under setting [1] is 99.7%.

Take `COc1cc(/C=C(\C#N)C(N)=O)cc(CSc2nc3ccccc3s2)c1O` [AG-825]: the activity at 10 µM is, setting by setting: (read-out: cell death TNF (POC)) 80.1%; under setting [1], 99.4%.

As for `O=C(O)c1ccc2nc(-c3ccccc3)c(-c3ccccc3)nc2c1` [BML-257], the activity at 10 µM is 91.3% (read-out: cell death TNF (POC)) and 99.7% under setting [1].

For `C#Cc1cccc(Nc2ncnc3cc(OC)c(OC)cc23)c1` [BML-265], the activity at 10 µM turned out to be 118% (read-out: cell death TNF (POC)) and 99.6% under setting [1].

As to `O=C1Nc2ccc(I)cc2/C1=C/c1cc(Br)c(O)c(Br)c1` [GW 5074], the activity at 10 µM was 90% (read-out: cell death TNF (POC)) and 99.1% under setting [1].

Turning to `O=c1c(-c2ccc(O)cc2)coc2cc(O)cc(O)c12` [Genistein], the activity at 10 µM is 86.1% (read-out: cell death TNF (POC)) and 99.3% under setting [1].

Take `O=P(O)(O)C(O)c1ccc2ccccc2c1` (centres unmarked) [HNMPA]: the activity at 10 µM by setting is: (read-out: cell death TNF (POC)) 80.3%; under setting [1], 100%.

In the case of `Cc1ccc(NC(=O)c2ccc(CN3CCN(C)CC3)cc2)cc1Nc1nccc(-c2cccnc2)n1` [Imatinib mesylate], the activity at 10 µM by setting is: (read-out: cell death TNF (POC)) 63.9%; under setting [1], 96.1%.

Turning to `O=C1Nc2ccccc2/C1=C1/Nc2ccccc2C1=O` [Indirubin], the activity at 10 µM (read-out: cell death TNF (POC)) is 91.7% and the activity at 10 µM under setting [1] was 99.1%.

For the compound `O=C1Cc2c([nH]c3ccc(Br)cc23)-c2ccccc2N1` [Kenpaullone], the activity at 10 µM turned out to be 162% (read-out: cell death TNF (POC)) and 99.9% under setting [1].

`C/C(O)=C(\C#N)C(=O)Nc1cc(Br)ccc1Br` [LFM-A13]: the activity at 10 µM reads like this: (read-out: cell death TNF (POC)) 93.5%; under setting [1], 100%.

On to `O=c1cc(N2CCOCC2)oc2c(-c3ccccc3)cccc12` [LY 294002], for which the activity at 10 µM turned out to be 85.7% (read-out: cell death TNF (POC)) and 99.2% under setting [1].

Regarding `O=C(O)c1cc(N(Cc2ccccc2O)Cc2cc(O)ccc2O)ccc1O` [Lavendustin A], the activity at 10 µM runs as follows: (read-out: cell death TNF (POC)) 85.9%; under setting [1], 100%.

For `O=S(=O)(c1cccc2c(I)cccc12)N1CCCNCC1` [ML-7·HCl], the activity at 10 µM reads like this: (read-out: cell death TNF (POC)) 90.2%; under setting [1], 99.4%.

On to `O=S(=O)(c1cccc2c(Cl)cccc12)N1CCCNCC1` [ML-9·HCl], for which the activity at 10 µM worked out at 84.8% (read-out: cell death TNF (POC)) and 99.8% under setting [1].

As for `COc1cccc(-c2cc(=O)c3ccccc3o2)c1N` [PD-98059], the activity at 10 µM by setting is: (read-out: cell death TNF (POC)) 70.9%; under setting [1], 98.9%.

Regarding `Cc1ccc(-c2nn(C(C)(C)C)c3ncnc(N)c23)cc1` [PP1], the activity at 10 µM by setting is: (read-out: cell death TNF (POC)) 114%; under setting [1], 100%.

`CC(C)(C)n1nc(-c2ccc(Cl)cc2)c2c(N)ncnc21` [PP2]: the activity at 10 µM was determined as 127% (read-out: cell death TNF (POC)) and 100% under setting [1].

`O=c1c(O)c(-c2ccc(O)c(O)c2)oc2cc(O)cc(O)c12` [Quercetin·2H2O]: the activity at 10 µM runs as follows: (read-out: cell death TNF (POC)) 90.4%; under setting [1], 98.5%.

Regarding `N#C/C(=C\c1cc(Cl)cc(Cl)c1)c1cccnc1` [RG-14620], the activity at 10 µM reads like this: (read-out: cell death TNF (POC)) 95.9%; under setting [1], 99.8%.

Turning to `c1ccc2c(-c3ccncc3)c[nH]c2c1` [Rockout], the activity at 10 µM runs as follows: (read-out: cell death TNF (POC)) 106%; under setting [1], 99%.

As for `Oc1ccc(-c2nc(-c3ccc(F)cc3)c(-c3ccncc3)[nH]2)cc1` [SB-202190], the activity at 10 µM stood at 110% (read-out: cell death TNF (POC)) and 96.3% under setting [1].

On to `C[S+]([O-])c1ccc(-c2nc(-c3ccc(F)cc3)c(-c3ccncc3)[nH]2)cc1` (centres unmarked) [SB-203580], for which the activity at 10 µM reads like this: (read-out: cell death TNF (POC)) 108%; under setting [1], 99.6%.

For the compound `CC(C)c1cc(/C=C(\C#N)C(=O)NCCCc2ccccc2)cc(C(C)C)c1O` [SU1498], the activity at 10 µM reads like this: (read-out: cell death TNF (POC)) 91.7%; under setting [1], 99.2%.

Turning to `CCN(CC)CCNC(=O)c1c(C)[nH]c(/C=C2\C(=O)Nc3ccc(Cl)cc32)c1C` [SU11652], the activity at 10 µM (read-out: cell death TNF (POC)) was determined as 194% and the activity at 10 µM under setting [1] was 104%.

As to `N#CC(C#N)=Cc1ccc(O)c(O)c1` [TYRPHOSTIN 23], the activity at 10 µM by setting is: (read-out: cell death TNF (POC)) 88.9%; under setting [1], 100%.

As for `N#CC(C#N)=Cc1cc(O)c(O)c(O)c1` [TYRPHOSTIN 25], the activity at 10 µM (read-out: cell death TNF (POC)) was 90% and the activity at 10 µM under setting [1] was 100%.

Turning to `N#C/C(=C\c1ccc(O)c(O)c1)C(N)=O` [TYRPHOSTIN 46], the activity at 10 µM (read-out: cell death TNF (POC)) came out at 97.8% and the activity at 10 µM under setting [1] is 99.8%.

Consider `N#C/C(=C\c1ccc(O)c(O)c1)C(N)=S` [TYRPHOSTIN 47], for which the activity at 10 µM reads like this: (read-out: cell death TNF (POC)) 93%; under setting [1], 100%.

`N#CC(C#N)=C(N)/C(C#N)=C/c1cc(O)c(O)c(O)c1` [TYRPHOSTIN 51]: the activity at 10 µM is, setting by setting: (read-out: cell death TNF (POC)) 116%; under setting [1], 101%.

On to `N#CC(C#N)=Cc1cc(O)c(O)c([N+](=O)[O-])c1` [TYRPHOSTIN AG 1288], for which the activity at 10 µM reads like this: (read-out: cell death TNF (POC)) 81.1%; under setting [1], 99.7%.

For `Cc1cc2ncc(-c3ccccc3)nc2cc1C` [TYRPHOSTIN AG 1295], the activity at 10 µM reads like this: (read-out: cell death TNF (POC)) 93.6%; under setting [1], 100%.

For `COc1cc2ncnc(Nc3cccc(Cl)c3)c2cc1OC` [TYRPHOSTIN AG 1478], the activity at 10 µM was 84.2% (read-out: cell death TNF (POC)) and 98.7% under setting [1].

In the case of `CC1=C(O)C(=O)[C@@H]2O[C@@H]2C1=O` [Terreic acid], the activity at 10 µM runs as follows: (read-out: cell death TNF (POC)) 104%; under setting [1], 99.1%.

Regarding `N#CC(C#N)=C(N)/C(C#N)=C/c1ccc(O)cc1` [Tyrphostin AG112], the activity at 10 µM (read-out: cell death TNF (POC)) was found to be 89.4% and the activity at 10 µM under setting [1] amounted to 98.7%.

On to `N#CC(=C(/N)Sc1ccccc1N)/C(C#N)=C(\N)Sc1ccccc1N` [U-0126], for which the activity at 10 µM runs as follows: (read-out: cell death TNF (POC)) 69.7%; under setting [1], 98.7%.

For `COC[C@H]1OC(=O)c2coc3c2[C@@]1(C)C1=C(C3=O)[C@@H]2CCC(=O)[C@@]2(C)C[C@H]1OC(C)=O` [Wortmannin], the activity at 10 µM runs as follows: (read-out: cell death TNF (POC)) 99.4%; under setting [1], 101%.

As to `C[C@@H](N)[C@H]1CC[C@H](C(=O)Nc2ccncc2)CC1` [Y-27632·2HCl], the activity at 10 µM (read-out: cell death TNF (POC)) came to 93.3% and the activity at 10 µM under setting [1] worked out at 98.6%.

With `Cc1ccc(NC(=O)c2cccc(N(C)C)c2)cc1NC(=O)c1ccc(O)cc1` [ZM 336372], the activity at 10 µM turned out to be 81.9% (read-out: cell death TNF (POC)) and 99.4% under setting [1].

As for `C=CC(=O)c1ccc2ccccc2c1` [ZM 449829], the activity at 10 µM reads like this: (read-out: cell death TNF (POC)) 87.3%; under setting [1], 99.6%.
